From US20260284152A1, “COMPOSITION COMPRISING GV1001 FOR PREVENTING OR TREATING MACULAR DEGENERATION” (GEMVAX & KAEL CO., LTD., priority 2023, published 2026)

Legend:
[1] = tested on: retinal pigment epithelial cell line ARPE-19; assay: Reduction of reactive oxygen species (DCF-DA fluorescence) in H2O2-treated retinal pigment epithelial cells; format: cell-based
Text: (§1) Reactive oxygen species were generated by treating retinal pigment epithelial cell line ARPE-19 with hydrogen peroxide (H2O2).
(§2) Degenerated retinal pigment epithelial cells that appear in age-related macular degeneration were set as a model cell line, and epithelial loss of retinal pigment epithelial cells was induced.
Using DCF-DA as a reactive oxygen species dye sample, the change in the level of reactive oxygen species in retinal pigment epithelial cells (ARPE-19) induced by GV1001 was confirmed by fluorescence microscopy, and the results are shown in FIGS. 6A and 6B. DCF-DA fluorescence intensity increased when oxidative stress was induced by H2O2, but decreased by treatment with metformin, a positive control.

[2] = tested on: retinal pigment epithelial cell line ARPE-19; assay: Reduction of epithelial-mesenchymal transition (cadherin 1 / vimentin, confocal microscope) in H2O2-treated retinal pigment epithelial cells; format: cell-based; details: ARPE-19, H2O2 50 μM
Text: as §1, §2
The degree of epithelial-mesenchymal transition, which indicates degeneration of retinal pigment epithelial cells, was confirmed by observing changes in cadherin 1 as an epithelial cell marker, and vimentin as a mesenchymal cell marker, using a confocal microscope, and the results are shown in FIG. 7.

[3] = tested on: C57BL/6 mice injected with NaIO3; assay: Short-term administration in NaIO3 mouse model of age-related macular degeneration (RPE/choroid flat mount, phalloidin); format: in vivo; details: NaIO3 20 mg/kg IV mice
Text: Mice injected with sodium iodate (NaIO3) are used as a representative model of age-related macular degeneration. A mouse model of age-related macular degeneration was established by injecting NaIO3 into C57BL/6 mice, thereby inducing oxidative stress specific to retinal pigment epithelial cells and causing damage.
To determine whether the disruption of tight junctions in the retinal pigment epithelium caused by NaIO3 administration was inhibited by GV1001, the retinal pigment epithelium/choroid (RPE/choroid) was flat-mounted, and the junctions between epithelial cells were stained with phalloidin samples and observed using a confocal microscope.
To determine whether the disruption of tight junctions in the retinal pigment epithelial cell layer was inhibited by GV1001, the retinal pigment epithelial layer/choroid was flat-mounted, and the junctions between epithelial cells were stained with phalloidin and observed using a confocal microscope.

[4] = tested on: C57BL/6 mice injected with NaIO3; assay: Long-term administration in NaIO3 mouse model of age-related macular degeneration (RPE/choroid flat mount, phalloidin); format: in vivo; details: NaIO3 20 mg/kg IV mice; for Tight junction structure of the retinal pigment epithelium: long-term post-treatment; for Tight junction structure of the retinal pigment epithelial layer: long-term pre-treatment
Text: A mouse model of age-related macular degeneration was established by injecting […] into C57BL/6 mice and inducing oxidative stress specifically in retinal pigment epithelial cells to cause damage.
The GV1001 dose determined through an efficacy evaluation test by short-term administration was used for efficacy evaluation in long-term administration.
The animal experimental group for verification of efficacy in reducing retinal pigment epithelial degeneration by long-term administration (3 months) of GV1001 was set up as shown in Table 4 below.
To determine whether the disruption of tight junctions in the retinal pigment epithelium was inhibited by GV1001, the retinal pigment epithelium/choroid was flat-mounted, and the junctions between epithelial cells were stained with phalloidin-stained samples and observed using a confocal microscope to determine the degree of disruption of tight junctions.
To determine whether the disruption of the tight junctions in the retinal pigment epithelium was reduced by long-term GV1001 administration, the retinal pigment epithelium/choroid was flat-mounted, and the junctions between epithelial cells were stained with phalloidin and observed using a confocal microscope.

Molecule | DCF-DA fluorescence intensity (reactive oxygen species) ([1]; ARPE-19, H2O2 50 μM oxidative stress, metformin 1 mM positive control) | Epithelial-mesenchymal transition (cadherin 1, vimentin) ([2]; metformin 1 mM positive control) | Tight junction structure of the retinal pigment epithelial cell layer ([3]; metformin 4 mg/mL in drinking water for 7 days before NaIO3) | DCF-DA fluorescence intensity (reactive oxygen species) ([1]; ARPE-19, H2O2 50 μM, post-treatment (2 h after 24 h H2O2), 0.1 μM) | DCF-DA fluorescence intensity (reactive oxygen species) ([1]; ARPE-19, H2O2 50 μM, post-treatment (2 h after 24 h H2O2), 10 μM) | DCF-DA fluorescence intensity (reactive oxygen species) ([1]; ARPE-19, H2O2 50 μM, pre-treatment (2 h before 24 h H2O2), 0.01 μM) | Epithelial-mesenchymal transition (cadherin 1, vimentin) ([2]; post-treatment, 10 μM) | Epithelial-mesenchymal transition (cadherin 1, vimentin) ([2]; pre-treatment, 0.01 μM) | Tight junction structure of the retinal pigment epithelial cell layer ([3]; short-term post-treatment, 0.5 mg/kg SC three times within one week from 10 days after NaIO3) | Tight junction structure of the retinal pigment epithelial cell layer ([3]; short-term post-treatment, 1.0 mg/kg SC three times within one week from 10 days after NaIO3) | Tight junction structure of the retinal pigment epithelial cell layer ([3]; short-term pre-treatment, 0.1 mg/kg SC three times a week for two weeks) | Tight junction structure of the retinal pigment epithelium ([4]; 0.1 mg/kg SC three times a week for 10 weeks) | Tight junction structure of the retinal pigment epithelium ([4]; 1.0 mg/kg SC three times a week for 10 weeks) | Tight junction structure of the retinal pigment epithelial layer ([4]; 0.1 mg/kg SC three times a week for 12 weeks) | Tight junction structure of the retinal pigment epithelial layer ([4]; 1.0 mg/kg SC three times a week for 12 weeks)
CN(C)C(=N)N=C(N)N [metformin, reference compound] | decreased | reduced | maintained | – | – | – | – | – | – | – | – | – | – | – | –
GV1001: A peptide consisting of 16 amino acids, having the amino acid sequence of SEQ ID NO: 1, derived from human telomerase (EARPALLTSRLRFIPK; UniProt O14746 611-626, looked up, fragment) | – | – | – | decreased | decreased | decreased | reduced | reduced | maintained | maintained | maintained | well maintained | well maintained | well maintained | well maintained
